Patent EP0309541B1, “SULFONYLCARBOXAMIDES” (AMERICAN HOME PRODUCTS CORPORATION, priority 1987, dated 1988)

Columns and labels:
[1] = tested on: rat carrageenan paw edema; assay: Rat carrageenan paw edema assay; format: in vivo; details: for ED50: oral, standard drugs, rat paw edema, read-out: Oral ED50 (95% C.L.); for % Inhibition at 50 mg/kg (peroral): 1 hour prior to carrageenan, edema at 3 hours
Procedure: The compounds of the invention are further tested in the rat carrageenan paw edema assay to determine their ability to inhibit the acute inflammatory response.
(§1) This assay is carried out as follows:
140-180 gm male Sprague-Dawley rats, in groups of 6 animals are injected subcutaneously in the right paw with 0.1 ml of 1% carrageenan at zero time. Mercury plethysmographic readings (ml) of the paw are made at zero time and 3 hours later. Test compounds are suspended or dissolved in 0.5% methylcellulose and given perorally 1 hour prior to carrageenan administration.
The increase in paw volume (edema in ml.) produced by the carrageenan is measured. […] Unpaired Student's t-test is used to determine statistical significance.

[2] = tested on: LTD₄ induced bronchoconstriction; assay: Inhibition of leukotriene-induced bronchospasm in guinea pigs in vivo; details: 10 minutes before induction of bronchospasm, inhibition of % max AUC
Procedure: The assay of this Example measures the in vivo ability of the compounds of the invention to inhibit the bronchospasm induced in guinea pigs by the exogenously administered leukotrienes C₄ and/or D₄.
as §1
Male Hartley strain guinea pigs (350-600g) are anesthetized with pentobarbital sodium (50 mg/kg, i.p.). The jugular vein is cannulated for injection of drugs and the carotid artery for monitoring blood pressure. The trachea is cannulated for artificial ventilation by a miniature Starling pump and for indirect measurement of respiratory volume changes. The animals are then pretreated with succinylcholine (2 mg/kg i.v.) and indomethacin (10 mg/kg i.v. in trizma 8.3 buffer, 9 minutes prior to leukotriene challenge). Submaximal bronchoconstrictor responses are established in control animals by varying the dose-levels of leukotriene. Intravenous dose-levels for LTC₄ range from 0.4 to 0.6 µg/kg and for LTD₄ the range is from 0.3 to 0.5 µg/kg.
Test drugs (dissolved in a solvent such as propylene glycol, polyethylene glycol 400 or saline) are administered either intraduodenally, by aerosol or intragastrically at 2 or 10 minutes before induction of bronchospasm by administration of either LTC₄ or LTD₄ at the predetermined dose-level. Aerosol of soluble drugs or leukotrienes are produced in-line for 10 seconds only by actuation of an ultrasonic nebulizer (Monaghan). Aerosolized drug dosage is expressed in terms of solution concentration and by a fixed aerosol exposure time (approximately 10 seconds). Control animal receive solvent (2 ml/kg i.d. or appropriate aerosol) in place of drug.
Respiratory volume changes are determined by a calibrated piston whose travel is recorded, via a linear transducer, on a Beckman Dynograph recorder. Maximal bronchoconstrictor volume is determined by clamping off the trachea at the end of the experiment. Overflow volumes at 1, 3 and 5 minutes are obtained from the recorded charts.
Student's t-test for unpaired data is used to determine statistical significance (p < 0.05).

[3] = tested on: synthesis of 5-HETE by rat glycogen elicited polymorphonuclear leukocytes; assay: Inhibition of 5-HETE synthesis by rat glycogen elicited polymorphonuclear leukocytes; format: cell-based; details: Leukocyte, rat peritoneal PMN, A23187 10 µM, [14C] arachidonic acid, read-out: IC₅₀
Procedure: The assay of this Example measures the ability of the compounds of the invention to inhibit the synthesis of 5-HETE by rat glycogen elicited polymorphonuclear leukocytes.
The assay is carried out as follows:
(§2) Peritoneal PMN are obtained from female Wistar rats (150-250 g) that received an i.p. injection of 6% glycogen (10 ml). After 24 hours, rats are killed by Co₂ asphyxiation and peritoneal cells are harvested by peritoneal lavage using Ca⁺⁺ and Mg⁺⁺ free Hanks' balanced salt solution (HBSS). The peritoneal exudate is centrifuged at 400 g for 10 minutes. After centrifugation, the lavaged fluid is removed and the cell pellet is resuspended in HBSS containing Ca⁺⁺ and Mg⁺⁺ and 10 mM L-cysteine at a concentration of 2 x 10⁷ cells/ml. To 1 ml portions of cell suspension, test drugs or vehicle are added and incubated at 37°C for 10 minutes. Following this preincubation, the calcium ionophore (10 µM), A23187, is added together with 0.5 µCi [₁₄C] arachidonic acid and further incubated for 10 minutes. The reaction is stopped by the addition of ice cold water (3 ml) and acidifying to pH 3.5. Lipoxygenase products are then extracted twice into diethyl ether. […] After chromatography, the areas associated with 5-HETE standard are identified by autoradiography, cut out and quantitated by liquid scintillation.

[4] = tested on: synthesis of the arachidonic acid cyclooxygenase oxidation product PGE₂; assay: Inhibition of PGE₂ synthesis (cyclooxygenase product) by rat polymorphonuclear leukocytes; format: cell-based; details: Leukocyte, rat peritoneal PMN, procedure of Example 4, read-out: IC₅₀
Procedure: as §2, with “scintillation. […]” for “scintillation.”
In this assay, the procedure of Example 4 is carried out as described. […] After chromatography, the areas associated with the PGE₂ standard are identified by autoradiography, cut out and quantitated by liquid scintillation techniques.
The results are calculated as in Example 4.

[5] = 25 mg/kg intraduodenally administered
[6] = 25 mg/kg intragastrically administered

Row | Compound | ED50 [1] [mg/kg] | % Inhibition at 50 mg/kg (peroral) [1] [%] | % Inhibition [2, 5] [%] | % Inhibition [2, 6] [%] | IC50 [3] [µM] | IC50 [4] [µM]
1 | COc1ccc2c(c1)c(CC(=O)O)c(C)n2C(=O)c1ccc(Cl)cc1 [Indomethacin] | 3.7 | – | – | – | – | –
2 | CC(=O)Oc1ccccc1C(=O)O [Aspirin] | 145 | – | – | – | – | –
3 | Cc1ccc(S(=O)(=O)NC(=O)c2cccc(OCc3ccc4ccccc4n3)c2)cc1 [Example 3, N-[(4-Methylphenyl)sulfonyl]-3-(2-quinolinylmethoxy)benzamide] | – | 50 | 97 | 91 | 6 | 13
4 | Cc1ccc(S(=O)(=O)NC(=O)CCc2cccc(OCc3ccc4ccccc4n3)c2)cc1 [Example 1, N-[(4-Methylphenyl)sulfonyl]-3-(2-quinolylmethoxy)benzenepropanamide] | – | 40 | 97 | 66 | – | –
5 | CCCCC1C(=O)N(c2ccccc2)N(c2ccccc2)C1=O [Phenylbutazone] | 26.2 | – | – | – | – | –
